# Test results taken from patent US20140088114A1, “FUSED BICYCLIC KINASE INHIBITORS” (OSI Pharmaceuticals ,LLC, priority 2011, published 2014).
# Like-named read-outs stand apart in the source and are kept apart here.
# Assays:
# MKN45 cells = test: MKN45 cell proliferation assay (CellTiter-Glo); format: cell-based; conditions: Homo sapiens, MKN-45, 72 h; MKN45 cell line, 3 days incubation, at least duplicate experiments; read-out: Prolif. IC50
# Protocol: The effect of inhibitors on the proliferation of MKN45 cells was determined using the following protocol. MKN45 cells were plated in Corning 3917 96-well white tissue culture treated plates in growth medium (RPMI, 10% FCS) at a density of 5000 cells/well in a total volume of 135 μL and incubated at 37° C., 5% CO2, 95% humidity overnight. The following day, one-tenth volume of a 10× concentration of compounds was added to the wells in an 8-point dilution series. The dilution series was composed of an initial 1:5 dilution of a 10 mM stock of compound in DMSO, followed by serial 1:4 dilutions in DMSO, then a 1:20 dilution in growth medium prior to the 1:10 dilution into the cell plate. Final DMSO concentration on the cells was 0.1%, there were control wells treated with both 0.1% DMSO and no DMSO. The typical dilution range is 10 μM to 0.6 nM. Once the compound was added to the cells, plates were incubated for 3 days at 37° C., 5% CO2 at 95% humidity. On the third day, after allowing all cells and reagents to come to room temperature, 25 μL of CellTiter-Glo reagent (Promega #G7573) was added to the wells. Plates were shaken on a platform for 10 minutes prior to reading luminescence for 0.1 seconds. The signal of the control wells was taken as 100% growth and growth inhibition was expressed as percent of control. IC50 values were determined from the percent of control data using a standard four-parameter model.
# The IC50 values of exemplary compounds of the present invention determined in a cell proliferation assay using the MKN45 cell line according to the procedures described herein in at least duplicate experiments are abbreviated as follows and are shown in Table 2: A, IC50≦0.03 μM; B, 0.03 μM<IC50≦0.1 μM; C, 0.1 μM<IC50≦1 μM; D, 1 μM<IC50≦3 μM; ND, not determined. The Example # of Table 2 corresponds to the compound example number as illustrated in the Examples section. […]
# RON = biological target: T1, RON (Homo sapiens, UniProt Q04912); test: sfRON cell mechanistic assay (HeLa), phosphorylated RON; format: cell-based
# T1 construct: expressed in transfected cells; host or cells: HeLa
# T1 sequence (Q04912 913-1400 limits assumed): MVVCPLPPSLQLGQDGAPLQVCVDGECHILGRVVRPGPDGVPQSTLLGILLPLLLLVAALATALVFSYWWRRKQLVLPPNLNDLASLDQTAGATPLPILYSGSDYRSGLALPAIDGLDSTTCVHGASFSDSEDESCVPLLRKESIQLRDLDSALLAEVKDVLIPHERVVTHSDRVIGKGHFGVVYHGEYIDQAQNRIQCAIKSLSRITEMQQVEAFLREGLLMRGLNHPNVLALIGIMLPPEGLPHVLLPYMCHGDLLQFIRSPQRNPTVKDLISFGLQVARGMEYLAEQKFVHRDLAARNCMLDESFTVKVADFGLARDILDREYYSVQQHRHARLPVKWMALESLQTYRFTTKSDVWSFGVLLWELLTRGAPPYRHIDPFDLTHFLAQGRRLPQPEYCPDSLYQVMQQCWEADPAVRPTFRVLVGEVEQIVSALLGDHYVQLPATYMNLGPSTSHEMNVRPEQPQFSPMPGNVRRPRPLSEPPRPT
# Protocol: The cellular activity of the compounds of the present invention against RON may be determined by the following procedure. HeLa cells were plated in Falcon 3072 96-well plates in growth media (DMEM, 10% FBS, 1% L-glutamine) at a density of 10000 cells/well and incubated at 37° C., 5% CO2 overnight. The following day, cells were transfected with 0.2 μg sfRON-pcDNA plasmid DNA with 0.5 μL Lipofectamine2000 per well in the presence of 50 μL OPTI-MEM, incubated at 37° C., 5% CO2 overnight. Costar 3915 96-well assay plates were coated with rabbit Anti-RON antibody at 2.0 μg/mL, sealed, and incubated overnight at 4° C. On the third day, coated plates were washed with PBS and blocked with 3% BSA. For the sfRON transfected cells, one-tenth volume of a 10× concentration of compounds was added to the wells in a 6-point dilution series. The dilution series was composed of an initial 1:5 dilution of a 10 mM DMSO stock solution of compound in DMSO, followed by a 1:10 dilution in growth media, for a final DMSO concentration on cells of 0.5%. Control wells were treated with 0.5% DMSO. The typical range of dilution was 10 μM to 3 nM. Once compound was added to the cells, plates were incubated for four hours at 37° C., 5% CO2. Plates were then washed in PBS, and lysed in triton-based lysis buffer. Lysates were transferred to the blocked capture plates. The phosphorylated RON levels were measured by incubating with a Goat polyclonal antibody against phosphorylated RON ([pYpY1238/1239]) followed by an anti-Goat antibody conjugated to HRP. Signal was measured on a Wallac Victor plate reader with luminance. The DMSO signal of the control wells was defined as 100% and the percent of inhibition of phosphorylated RON was expressed as percent of control. IC50 values were determined from the percent of control data using a standard four-parameter model.
# The IC50 values of exemplary compounds of the present invention determined in a sfRON cell mechanistic assay using the HeLa cell line according to the procedures described herein in at least duplicate experiments are abbreviated as follows and are shown in Table 3: A, IC50≦0.03 μM; B, 0.03 μM<IC50≦0.1 μM; C, 0.1 μM<IC50≦1 μM; D, 1 μM<IC50≦3 μM; ND, not determined. The Example # of Table 3 corresponds to the compound example number as illustrated in the Examples section.
# [1] = Table 6: comparison X = C1-3haloalkyl vs. X = C1-3alkyl, read-out: sfRON cell mechanistic
# [2] = sfRON transfected HeLa cells, four hours incubation, inhibition of phosphorylated RON, at least duplicate experiments, read-out: sfRON mech IC50
IC50 (MKN45 cells) [nM],IC50 (RON; [1]) [nM],IC50 (RON; [2]) [nM],Structure (SMILES)
100 to 1000,30 to 100,30 to 100,"COc1ccc(F)c(Cl)c1[C@@H](CF)c1c[nH]c2ncc(-c3cnn([C@H]4CC[C@H](O)CC4)c3)cc12 [Example 3, trans-4-(4-{3-[(1S)-1-(2-chloro-3-fluoro-6-methoxyphenyl)-2-fluoroethyl]-1H-pyrrolo[2,3-b]pyridin-5-yl}-1H-pyrazol-1-yl)cyclohexanol]"
,≤ 30,≤ 30,"O[C@H]1CC[C@H](n2cc(-c3cnc4[nH]cc([C@H](CF)c5c(OC(F)F)ccc(F)c5Cl)c4c3)cn2)CC1 [Example 5, trans-4-[4-(3-{(1S)-1-[2-Chloro-6-(difluoromethoxy)-3-fluorophenyl]-2-fluoroethyl}-1H-pyrrolo[2,3-b]pyridin-5-yl)-1H-pyrazol-1-yl]cyclohexanol]"
100 to 1000,100 to 1000,100 to 1000,"Cn1cc(-c2cnc3[nH]cc(C(CF)c4c(Cl)ccc(F)c4Cl)c3c2)cn1 (centres unmarked) [Example 1, 3-[1-(2,6-Dichloro-3-fluorophenyl)-2-fluoroethyl]-5-(1-methyl-1H-pyrazol-4-yl)-1H-pyrrolo[2,3-b]pyridine]"
≤ 30,30 to 100,30 to 100,"O[C@H]1CC[C@H](n2cc(-c3cnc4[nH]cc([C@@H](CF)c5c(OC(F)F)ccc(F)c5Cl)c4c3)cn2)CC1 [Example 4, trans-4-[4-(3-{(1R)-1-[2-Chloro-6-(difluoromethoxy)-3-fluorophenyl]-2-fluoroethyl}-1H-pyrrolo[2,3-b]pyridin-5-yl)-1H-pyrazol-1-yl]cyclohexanol]"
